Test results taken from article PMC6751026 (Addiction biology, 2019).

Molecular target: T1, α1 glycine receptor (GlyR) (Mus musculus, UniProt Q64018, K421A/K422A)
T1 sequence (Q64018 29-457 K421A/K422A): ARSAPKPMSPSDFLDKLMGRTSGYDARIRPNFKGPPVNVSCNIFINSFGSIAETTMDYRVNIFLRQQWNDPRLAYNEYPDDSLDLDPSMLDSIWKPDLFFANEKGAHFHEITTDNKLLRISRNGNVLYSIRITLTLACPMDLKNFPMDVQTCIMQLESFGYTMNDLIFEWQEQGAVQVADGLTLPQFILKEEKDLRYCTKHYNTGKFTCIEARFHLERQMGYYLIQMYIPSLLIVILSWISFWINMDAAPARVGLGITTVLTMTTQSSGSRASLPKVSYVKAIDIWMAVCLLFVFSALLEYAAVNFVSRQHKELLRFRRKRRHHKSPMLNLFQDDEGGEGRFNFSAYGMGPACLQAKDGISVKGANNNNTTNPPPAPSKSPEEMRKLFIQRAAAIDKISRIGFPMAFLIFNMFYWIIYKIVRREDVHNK
Test: whole-cell patch clamp, glycine concentration-response
Type: cell-based

NCC(=O)O [glycine] was tested, and the EC50 was 54 ± 1 µM.
